Reference: publication PMC13194776, “Small-molecule binding and sensing with a designed protein family” (Nature Communications, 2026)
Each block holds one molecule with its values, some of them ahead of it.

How the values were obtained:
albumin = molecular target: T1, albumin; experiment: Fluorescence polarization cross-reactivity assay with TAMRA-labelled ligands at 5 nM (HCY, OHP, WRF) or 10 nM (SN-38) titrated with binder or albumin.; type: binding; settings: read-out: KD (μM), specificity table, TAMRA-labelled targets
T1 construct: control protein
Description: (§1) measured against all six targets. Raw binding traces can be found in Supplementary

iri807.1 [1] = molecular target: T2, iri807.1; experiment: as above; type: binding; settings: read-out: KD (μM), specificity table, TAMRA-labelled targets
T2 construct: N-terminal hexahistidine tag; 3 mutations compared to the original design
Description: as §1

ohp1952 = molecular target: T3, ohp1952; experiment: as above; type: binding; settings: read-out: KD (μM), specificity table, TAMRA-labelled targets
T3 construct: N-terminal hexahistidine tag; original design
Description: as §1

roc22182.1 [2] = molecular target: T4, roc22182.1; experiment: as above; type: binding; settings: read-out: KD (μM), specificity table, TAMRA-labelled targets
T4 construct: N-terminal hexahistidine tag; 9 mutations compared to the original design
Description: as §1

hcy129.1 [3] = molecular target: T5, hcy129.1; experiment: as above; type: binding; settings: read-out: KD (μM), specificity table, TAMRA-labelled targets
T5 construct: N-terminal hexahistidine tag; 4 mutations compared to the original design
Description: as §1

apx1501 = molecular target: T6, apx1501; experiment: Isothermal titration calorimetry at 25 °C with warfarin or apixaban, 5% DMSO in all solutions, single-site binding model.; settings: read-out: KD (μM), ITC, warfarin and apixaban
T6 construct: N-terminal hexahistidine tag; original design
Procedure: (§2) Binding affinity of designed proteins was assessed by titrating purified protein with ligand using a microcal PEAQ ITC-Automated instrument. Both protein and ligand were prepared in identical buffers that were degassed by bottle-top filtration. […] All titrations were performed at 25 °C and 19 total injections, 0.4 μL for the first injection and 2 μL for the remaining 18. Resulting titration data were analyzed with the Malvern Panalytical ITC Analysis software, and a single-site binding model was used to fit the resulting data.

apx1493 = molecular target: T7, apx1493; experiment: as above; settings: read-out: KD (μM), ITC, warfarin and apixaban
T7 construct: N-terminal hexahistidine tag; original design
Procedure: as §2

apx2592 = molecular target: T8, apx2592; experiment: as above; settings: read-out: KD (μM), ITC, warfarin and apixaban
T8 construct: N-terminal hexahistidine tag; original design
Procedure: as §2

apx1049 = molecular target: T9, apx1049; experiment: as above; settings: read-out: KD (μM), ITC, warfarin and apixaban
T9 construct: N-terminal hexahistidine tag; original design
Procedure: as §2

hcy129_mpnn5 = molecular target: T10, hcy129_mpnn5; experiment: Isothermal titration calorimetry at 25 °C with cortisol, 1% DMSO in all solutions, single-site binding model.; settings: read-out: KD (μM), ITC, cortisol
T10 construct: ProteinMPNN surface-redesigned version; 9 mutations compared to the original design as printed
Procedure: as §2
(§3) Supplementary Table 2. Small-molecule binding characterization results
(§4) Target Design name Number of KD (μM) KD determination

hcy129 = molecular target: T11, hcy129; experiment: as above; settings: read-out: KD (μM), ITC, cortisol
T11 construct: N-terminal hexahistidine tag; original design
Procedure: as §2, §3, §4

hcy129.1_CID = molecular target: T12, hcy129.1_CID; experiment: as above; settings: read-out: KD (μM), ITC, cortisol
T12 construct: 7 mutations compared to the original design
Procedure: as §2, §3, §4

hcy129.1 [4] = molecular target: T5, hcy129.1; experiment: as above; settings: read-out: KD (μM), ITC, cortisol
Procedure: as §2, §3, §4

hcy129.1 [5] = molecular target: T5, hcy129.1; experiment: Isothermal titration calorimetry of purified designs with unlabelled ligand at 25 °C, single-site fit; 1% DMSO for cortisol, 5% DMSO for warfarin and apixaban, HEPES pH 8 for rocuronium.; type: binding; settings: read-out: KD (μM) ITC
Procedure: Characterization of binding affinity by ITC
as §2

[6] = test system: hcy129.1_CID-SmBiT and miniH11_LgBiT; experiment: Cortisol-induced dimerization NanoBiT luminescent sensor; type: biochemical; settings: sensor components 200 nM each, 2 h, DTZ 25 μM; estimated; read-out: EC50 of luminescent signal
Procedure: Immediately after adding the luciferase substrate diphenylterazine (DTZ) at a final concentration of 25 μΜ, the luminescent signal was measured on a Neo2 plate reader (Fig. 4H).
hcy129.1_CID (200 nM) and minibinder designed for CID (miniH11, 200 nM) was titrated with various
ligands and incubated for 2 hours, followed by addition of DTZ (25 μM) to initiate luminescence reaction.
All reactions were carried out at 50 μL final volume in HBS-EP+ buffer (Cytiva).

roc22182.1 [7] = molecular target: T4, roc22182.1; experiment: Isothermal titration calorimetry at 25 °C with rocuronium in 20 mM HEPES, 50 mM NaCl, pH 8, no DMSO, single-site binding model.; settings: read-out: KD (μM), ITC, rocuronium
Procedure: as §2, §3, §4

roc22182 = molecular target: T13, roc22182; experiment: as above; settings: read-out: KD (μM), ITC, rocuronium
T13 construct: N-terminal hexahistidine tag; original design
Procedure: as §2, §3, §4

wrf929 = molecular target: T14, wrf929; experiment: Isothermal titration calorimetry at 25 °C with warfarin or apixaban, 5% DMSO in all solutions, single-site binding model.; settings: read-out: KD (μM), ITC, warfarin and apixaban
T14 construct: N-terminal hexahistidine tag; original design
Procedure: as §2, §3, §4

wrf1071 [8] = molecular target: T15, wrf1071; experiment: as above; settings: read-out: KD (μM), ITC, warfarin and apixaban
T15 construct: N-terminal hexahistidine tag; original design
Procedure: as §2

[9] = Cross-reactivity FP binding to HCY-TAMRA; settings: HCY-TAMRA 5 nM
Procedure: (§5) Two-fold serial dilutions of the binder protein were prepared in 24 wells with constant amounts of the target ligand, and the plate was incubated at room temperature, shaking for at least 30 min. Fluorescence polarization filter cube (Red FP, EX 530/25 nm;EM 590/35 nm, Agilent) was used to measure polarization with the plate reader (Synergy Neo2, Biotek). A binding isotherm model was used to fit the data and estimate KD.
(§6) We performed an all by all binding experiment between all targets and representative binders for each target. […] Fluorescence polarization filter cube (Red1 FP, EX 530/25 nm;EM 590/35 nm, Agilent) was used to measure polarization. […] Biotinylated APX and ROC were immobilized to the Streptavidin biosensor and all binders were titrated 3-fold starting from 25uM. Other experimental conditions were kept the same as described above for characterization using FP and BLI.

[10] = Cross-reactivity FP binding to SN-38-TAMRA; settings: SN-38-TAMRA 10 nM
Procedure: as §5, §6

[11] = Cross-reactivity BLI binding to ROC-Biotin; settings: ROC-Biotin immobilized, binders titrated 3-fold from 25uM
Procedure: (§7) Biolayer interferometry (BLI) was used to estimate the binding affinity and screen for binding of the purified proteins and target small-molecules APX, and SN-38. […] 1 μM of small-molecule targets with biotin conjugated (APX-Biotin and SN-38-Biotin) were used as ligands to be immobilized to the Octet Streptavidin biosensors (Sartorius). Titration experiments were performed at 25 °C, and the kinetic response data was collected using Octet RED96 and R8 (ForteBio). The resulting responses of the analytes were corrected using the signal from the reference buffer, and further analysis was performed using the Octet Data Analysis software.
as §6

[12] = Cross-reactivity BLI binding to APX-Biotin; settings: APX-Biotin immobilized, binders titrated 3-fold from 25uM
Procedure: as §7, §6

[13] = Cross-reactivity FP binding to OHP-TAMRA; settings: OHP-TAMRA 5 nM
Procedure: as §5, §6

iri807.1 [14] = molecular target: T2, iri807.1; experiment: Fluorescence polarization with 6 nM fluorophore-labelled OHP-AF488 or SN-38-TAMRA titrated with binder protein in PBS at room temperature, binding isotherm fit.; settings: read-out: KD (μM), FP
Procedure: (§8) Two-fold serial dilutions of the binder protein were prepared in 24 wells with constant amounts of the target ligand, and the plate was incubated at room temperature, shaking for at least 30 min. […] A binding isotherm model was used to fit the data and estimate KD.
as §3, §4

iri807.2 = molecular target: T16, iri807.2; experiment: as above; settings: read-out: KD (μM), FP
T16 construct: N-terminal hexahistidine tag; 3 mutations compared to the original design
Procedure: as §8, §3, §4

iri807.3 = molecular target: T17, iri807.3; experiment: as above; settings: read-out: KD (μM), FP
T17 construct: N-terminal hexahistidine tag; 3 mutations compared to the original design
Procedure: as §8, §3, §4

iri3009 = molecular target: T18, iri3009; experiment: as above; settings: read-out: KD (μM), FP
T18 construct: N-terminal hexahistidine tag; original design
Procedure: as §8, §3, §4

iri807 = molecular target: T19, iri807; experiment: as above; settings: read-out: KD (μM), FP
T19 construct: N-terminal hexahistidine tag; original design
Procedure: as §8, §3, §4

wrf1071 [15] = molecular target: T15, wrf1071; experiment: Fluorescence polarization cross-reactivity assay with TAMRA-labelled ligands at 5 nM (HCY, OHP, WRF) or 10 nM (SN-38) titrated with binder or albumin.; type: binding; settings: read-out: KD (μM), specificity table, TAMRA-labelled targets
Description: as §1

Molecule: 17α-hydroxyprogesterone-TAMRA (TAMRA conjugate) [OHP-TAMRA]
Kd (albumin): 52 µM
Kd (iri807.1 [1]): 0.27 µM
Kd (ohp1952): 0.005 µM
Kd (roc22182.1 [2]): 0.078 µM
Kd (hcy129.1 [3]): 0.005 µM

Kd (apx1501): 5.5 µM
Kd (apx1493): 9.67 µM
Kd (apx2592): 3.16 µM
Kd (apx1049): 0.679 µM
Molecule: COc1ccc(-n2nc(C(N)=O)c3c2C(=O)N(c2ccc(N4CCCCC4=O)cc2)CC3)cc1 [apixaban, apixaban (APX)]

Molecule: C[C@]12CCC(=O)C=C1CC[C@@H]1[C@@H]2[C@@H](O)C[C@@]2(C)[C@H]1CC[C@]2(O)C(=O)CO [cortisol, cortisol (HCY)]
Kd (hcy129_mpnn5): 3.4 µM
Kd (hcy129): 2.3 µM
Kd (hcy129.1_CID): 0.064 µM
Kd (hcy129.1 [4]): 0.065 µM
Kd (hcy129.1 [5]): 0.068 µM

Molecule: C[C@]12CCC(=O)C=C1CC[C@@H]1[C@@H]2[C@@H](O)C[C@@]2(C)[C@H]1CC[C@]2(O)C(=O)CO [cortisol]
EC50 [6]: 0.072 µM

Molecule: C=CC[N+]1([C@H]2C[C@H]3[C@@H]4CC[C@H]5C[C@H](O)[C@@H](N6CCOCC6)C[C@]5(C)[C@H]4CC[C@]3(C)[C@H]2OC(C)=O)CCCC1 [rocuronium, rocuronium (ROC)]
Kd (roc22182.1 [7]): > 4 µM
Kd (roc22182): > 50 µM

Molecule: CC(=O)CC(c1ccccc1)c1c(O)c2ccccc2oc1=O (stereo not drawn) [warfarin, warfarin (WRF)]
Kd (wrf929): 5.9 µM
Kd (wrf1071 [8]): 0.83 µM

Binding affinity KD [9]: No binding
Binding affinity KD ([9]; listed as albumin): no binding
Binding affinity KD [10]: No binding
Binding affinity KD ([10]; listed as albumin): no binding
Binding affinity KD [11]: No binding
Binding affinity KD ([11]; listed as albumin): no binding
Binding affinity KD [12]: No binding
Binding affinity KD ([12]; listed as albumin): no binding
Binding affinity KD [13]: weak binding
Molecule: Albumin: control protein known for promiscuous binding to hydrophobic ligands; bovine serum albumin per b230

Molecule: SN-38-TAMRA (fluorophore linker conjugate of SN-38)
Kd (iri807.1 [14]): 0.059 µM
Kd (iri807.2): 0.063 µM
Kd (iri807.3): 0.016 µM
Kd (iri3009): 1.41 µM
Kd (iri807): 0.09 µM
Kd (iri807.1 [1]): 0.048 µM
Kd (wrf1071 [15]): 42 µM

Molecule: cortisol-TAMRA (TAMRA conjugate of cortisol) [HCY-TAMRA]
Kd (iri807.1 [1]): 26 µM
Kd (wrf1071 [15]): 67 µM
Kd (roc22182.1 [2]): 1.4 µM
Kd (hcy129.1 [3]): 0.005 µM
